Experimental findings from ChEMBL document CHEMBL2074510, “Defective ATP-dependent bile canalicular transport of organic anions in mutant (TR-) rats with conjugated hyperbilirubinemia” (Proc Natl Acad Sci U S A, 1990) are described below.

The series has as its target ATP-binding cassette sub-family C member 2 (Rattus norvegicus, UniProt Q63120). Kind of series: TP_TRANSPORTER: uptake in bile canalicular membrane vesicles from Wistar/TR- rat. The format is functional, cell membranes, Bile canalicular membrane vesicle.

Chain of ATP-binding cassette sub-family C member 2 (Q63120 whole entry): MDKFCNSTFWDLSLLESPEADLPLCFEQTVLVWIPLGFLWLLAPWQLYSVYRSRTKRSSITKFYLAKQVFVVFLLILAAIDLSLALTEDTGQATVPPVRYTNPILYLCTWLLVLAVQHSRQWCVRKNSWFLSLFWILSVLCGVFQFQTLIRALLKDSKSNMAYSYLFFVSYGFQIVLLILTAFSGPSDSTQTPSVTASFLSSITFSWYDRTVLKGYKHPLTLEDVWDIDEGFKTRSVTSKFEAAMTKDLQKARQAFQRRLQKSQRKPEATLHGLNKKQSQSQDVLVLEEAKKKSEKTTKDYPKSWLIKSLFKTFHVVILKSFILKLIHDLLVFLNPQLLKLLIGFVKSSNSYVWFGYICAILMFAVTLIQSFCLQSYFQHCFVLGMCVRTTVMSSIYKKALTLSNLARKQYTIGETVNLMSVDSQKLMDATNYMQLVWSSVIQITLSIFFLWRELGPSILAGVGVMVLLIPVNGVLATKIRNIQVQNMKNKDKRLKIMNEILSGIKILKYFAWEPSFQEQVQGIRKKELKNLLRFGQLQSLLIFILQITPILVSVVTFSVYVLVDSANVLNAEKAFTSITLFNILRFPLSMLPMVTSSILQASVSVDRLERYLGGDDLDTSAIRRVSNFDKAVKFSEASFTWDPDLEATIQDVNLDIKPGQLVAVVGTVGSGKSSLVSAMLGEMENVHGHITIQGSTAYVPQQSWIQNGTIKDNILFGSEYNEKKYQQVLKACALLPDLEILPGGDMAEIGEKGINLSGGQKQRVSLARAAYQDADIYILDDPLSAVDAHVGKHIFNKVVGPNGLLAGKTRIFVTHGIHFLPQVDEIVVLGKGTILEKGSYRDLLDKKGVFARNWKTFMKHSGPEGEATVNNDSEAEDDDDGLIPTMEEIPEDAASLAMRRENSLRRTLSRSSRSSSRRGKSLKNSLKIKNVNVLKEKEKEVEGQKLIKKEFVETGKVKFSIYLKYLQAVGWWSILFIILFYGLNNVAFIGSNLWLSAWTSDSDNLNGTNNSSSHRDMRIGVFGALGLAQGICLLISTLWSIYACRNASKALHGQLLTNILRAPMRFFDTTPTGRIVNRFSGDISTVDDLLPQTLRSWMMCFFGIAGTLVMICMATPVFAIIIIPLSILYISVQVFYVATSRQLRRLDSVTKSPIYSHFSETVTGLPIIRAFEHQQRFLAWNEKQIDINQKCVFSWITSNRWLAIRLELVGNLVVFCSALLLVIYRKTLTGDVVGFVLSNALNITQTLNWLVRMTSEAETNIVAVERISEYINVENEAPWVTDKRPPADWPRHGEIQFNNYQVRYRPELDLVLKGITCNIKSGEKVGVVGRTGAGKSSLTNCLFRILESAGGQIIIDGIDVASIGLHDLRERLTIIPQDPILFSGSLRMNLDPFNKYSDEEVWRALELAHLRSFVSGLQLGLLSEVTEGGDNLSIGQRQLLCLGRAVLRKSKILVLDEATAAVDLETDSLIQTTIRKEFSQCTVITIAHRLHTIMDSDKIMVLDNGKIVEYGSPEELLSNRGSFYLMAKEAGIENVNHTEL

Regarding `N[C@@H](CCC(=O)N[C@@H](CSc1c(Br)c(Br)c2c(c1Br)C(=O)OC2(c1ccc(O)c(S(=O)(=O)O)c1)c1ccc(O)c(S(=O)(=O)O)c1)C(=O)NCC(=O)O)C(=O)O`, the Activity entry is “substrate [+]”.
